Reference: ChEMBL document CHEMBL2029336, “S-Adenosylhomocysteine hydrolase of the protozoan parasite Trichomonas vaginalis: potent inhibitory activity of 9-(2-deoxy-2-fluoro-β,D-arabinofuranosyl)adenine” (Bioorg Med Chem Lett, 2012)
Calls of active or inactive are those of the source. No cut-off for these calls is given here.

Columns and labels:
Trichomonas vaginalis [1] = test: Growth inhibition of mtronidazole-resistant Trichomonas vaginalis after 24 hrs by hemocytometry; type: functional, organism-based
Trichomonas vaginalis [2] = test: Growth inhibition of Trichomonas vaginalis T1 at 100 uM after 24 hrs by hemocytometry; type: functional; conditions: for inhibition of growth at 100 µM: T1, 24 h, read-out: GI
Trichomonas vaginalis [3] = test: Growth inhibition of Trichomonas vaginalis T1 after 24 hrs by hemocytometry; type: functional, organism-based; conditions: T1, 24 h
CHO-K1 = test: Cytotoxicity against CHOK1 cells assessed as morphological changes at 100 uM after 48 hrs by microscopy; type: cell-based, Cricetulus griseus; conditions: chinese hamster, cho-k1, 48 h

Compound | inhibition of growth at 100 µM (Trichomonas vaginalis [2]) [%] | also measured
Cc1ncc([N+](=O)[O-])n1CCO [METRONIDAZOLE] | – | IC50 (Trichomonas vaginalis [1]): 0.21 µM
COc1ccc(SC[C@H]2O[C@@H](n3ccc(=O)[nH]c3=O)[C@H](O)[C@@H]2O)cc1 | – | growth inhibition (GI) (Trichomonas vaginalis [2]): inactive
Nc1ncnc2c1ncn2[C@@H]1O[C@H](CO)[C@@H](O)[C@@H]1O [VIDARABINE] | 100 | IC50 (Trichomonas vaginalis [3]): 3.6 µM
Nc1ncnc2c1ncn2[C@@H]1O[C@H](CO)[C@@H](O)[C@@H]1F | 99.6 | IC50 (Trichomonas vaginalis [1]): 100 µM; IC50 (Trichomonas vaginalis [3]): 0.09 µM; Activity (CHO-K1): Non-toxic
CCCSS[C@@H]1[C@H](O)[C@@H](CO)O[C@H]1n1cnc2c(N)ncnc21 | 43 | –
Nc1ncnc2c1ncn2[C@@H]1O[C@H](CO)[C@@H](O)[C@H]1F [2'-BETA-FLUORO-2',3'-DEOXYADENOSINE] | 100 | IC50 (Trichomonas vaginalis [3]): 2.94 µM
O=c1[nH]cnc2c1ncn2[C@@H]1O[C@H](CO)[C@@H](O)[C@H]1O [INOSINE] | 19.2 | –
CC(=O)O[C@H]1[C@@H](O)[C@H](n2ccc(=O)[nH]c2=O)O[C@@H]1CO | 22.8 | –
Nc1c2ncn([C@@H]3O[C@H](CO)[C@@H](O)[C@H]3O)c2nc[n+]1[O-] | 37.7 | –
Nc1ncnc2c1ncn2[C@H]1C[C@H](O)[C@@H](CO)O1 [DEOXYADENOSINE] | 48.7 | –
Nc1ncnc2c1ncn2[C@@H]1O[C@H](COC(=O)c2ccccc2)[C@@H](O)[C@H]1O | 13.5 | –
Nc1ncnc2c1ncn2[C@@H]1O[C@H](CO)[C@H]2O[C@H]21 | 43 | –
O=c1ccn([C@@H]2O[C@H](C=C(Br)Br)[C@@H](O)[C@H]2O)c(=O)[nH]1 | 12.2 | –
COc1ccc(SC[C@H]2O[C@@H](n3cnc4c(N)ncnc43)[C@H](O)[C@@H]2O)cc1 | 58 | –
O=C(Nc1ncnc2c1ncn2[C@@H]1O[C@H](CCl)[C@@H](O)[C@H]1O)c1ccccc1 | 40.7 | –
O=c1ccn([C@@H]2O[C@H](CSc3ccccc3)[C@@H](O)[C@H]2O)c(=O)[nH]1 | – | growth inhibition (GI) (Trichomonas vaginalis [2]): inactive
Nc1ncnc2c1ncn2[C@@H]1O[C@H](CO)C[C@H]1O [CORDYCEPIN] | 94.1 | –

Compound | inhibition of growth at 100 µM (Trichomonas vaginalis [2]) [%] | also measured
Nc1ncnc2c1ncn2[C@@H]1O[C@H](CCl)[C@@H](O)[C@H]1O | 88.9 | IC50 (Trichomonas vaginalis [3]): 53.3 µM
O=c1ccn([C@@H]2O[C@H](CCl)[C@@H](O)[C@H]2O)c(=O)[nH]1 | – | growth inhibition (GI) (Trichomonas vaginalis [2]): inactive
Nc1ncnc2c1ncn2[C@@H]1O[C@H](CO)[C@@H](O)[C@H]1O [ADENOSINE] | 49.7 | –
Nc1ncnc2c1ncn2[C@@H]1O[C@H](CO)[C@@H](F)[C@H]1O | 100 | IC50 (Trichomonas vaginalis [3]): 1.61 µM
Nc1ncnc2c1ncn2[C@@H]1O[C@H](CO)[C@H](F)[C@H]1O | 57.5 | –
[N-]=[N+]=NC[C@H]1O[C@@H](n2cnc3c(N)ncnc32)[C@H](O)[C@@H]1O | 85.2 | IC50 (Trichomonas vaginalis [3]): 48.5 µM
O=c1ccn([C@H]2C[C@H](O)[C@@H](CI)O2)c(=O)[nH]1 | 21.2 | –
N[C@@H]1[C@H](O)[C@@H](CO)O[C@H]1n1ccc(=O)[nH]c1=O | 18.4 | –
NC[C@H]1O[C@@H](n2cnc3c(NC(=O)c4ccccc4)ncnc32)[C@H](O)[C@@H]1O | 21.7 | –
Nc1ncnc2c1ncn2[C@@H]1O[C@H](CSc2ccc(Cl)cc2)[C@@H](O)[C@H]1O | 51.2 | –
Nc1nc(N)c2ncn([C@@H]3O[C@H](CO)[C@@H](O)[C@H]3O)c2n1 | 100 | IC50 (Trichomonas vaginalis [3]): 29.5 µM
CCCSS[C@H]1[C@H](O)[C@@H](CO)O[C@H]1n1cnc2c(N)nc(N)nc21 | 6.2 | –
CC(C)CSC[C@H]1O[C@@H](n2cnc3c(N)ncnc32)[C@H](O)[C@@H]1O | 44.9 | –
Nc1ncnc2c1ncn2[C@@H]1O[C@H](CO)[C@@H](O)[C@@H]1Cl | 100 | IC50 (Trichomonas vaginalis [3]): 5.93 µM
NC[C@H]1O[C@@H](n2cnc3c(N)ncnc32)[C@H](O)[C@@H]1O | 24.1 | –
CCCSS[C@H]1[C@H](O)[C@@H](CO)O[C@H]1n1cnc2c(N)ncnc21 | 66.8 | –
